One assay concerns the target ER (Homo sapiens, UniProt P03372). Briefly: Western blot degradation of ER. Format: cell-based. Particulars: Table IIA3, ER inhibitor-based. As to the method: (§1) Conventional Western blot assay was performed to evaluate the effects of the compounds of the present disclosure on the expression of target proteins in cells.
(§2) (1) Cell Seeding and Protein Harvesting: The selected cells were processed according to the cell seeding procedure and protein harvesting procedure in Table II-2.
(§3) (2) To the collected supernatant, 5×SDS sample loading buffer was added, followed by denaturation at 95 °C for 5 minutes. The denatured samples were then separated by SDS-PAGE electrophoresis on a polyacrylamide gel. Proteins were transferred to a nitrocellulose membrane (0.45 μm NC membrane), blocked with blocking buffer at room temperature for 1 hour, and subjected to antibody incubation and development procedures according to the antibody manufacturer's instructions (Cell Signaling Technology).
(§4) Half-Maximal Degradation Concentration value (the drug concentration required for degrading proteins by 50%, abbreviated as DC50) reads method: comparing the grayscale values of Western blot bands from drug-treated samples with those from blank DMSO-treated controls, and identifying the drug concentration range at which the grayscale value is half that of the DMSO-treated control bands.
(§5) DC50 values can be calculated using ImageJ software to measure grayscale values of Western blot bands from drug-treated samples. […]

Assay [1] deals with Human gastric cancer cell line MGC803. The assay can be described thus: Inhibition of MGC803 tumor cell proliferation (CellTiter luminescent viability). It counts as cell-based. The conditions noted are these: Table IC1, BTK inhibitor-based; MGC803, 96 hours; read-out: Inhibitory activity (IC50, nM) on tumor cell proliferation, MGC803. Here is the method:
(§6) The tumor cells used herein were cultured in a cell culture medium listed in table 3 at 37 °C in an incubator with 5% CO2. Prior to experimentation, all cell lines used were correctly identified by STR profiling, and tested negative for mycoplasma contamination using a mycoplasma detection kit through routine screenings.
(§7) The IC50 values of the compounds of the present disclosure (including the compounds in Table 1, Table 2, and Examples 1-468) were determined using the CellTiter-Meiluncell Luminescent Cell Viability Assay Kit from Dalian Meilun Biotech Co., Ltd. The detailed procedure is as follows: Tumor cells were seeded in 96-well cell culture plates at the densities specified in Table 4. On the following day, the test compounds of the present disclosure were subjected to serial dilution. The dilution can be performed according to one of the following two methods: • (1) The first dilution method: The test compounds of the present disclosure (including the compounds in Table 1, Table 2, and Examples 1-468) were subjected to 5-fold serial dilutions starting from a highest concentration of 2000 μM, resulting in a total of 9 concentrations from high to low (2000, 400, 80, 16, 3.2, 0.64, 0.128, 0.0256, 0.00512 μM). Subsequently, 0.5 μL of the test compound dilution was transferred into the 96-well plate containing the cells, with each well containing 100 μL of cell culture medium. […] Into the 96-well plate, the diluted test compounds and corresponding detection reagents were added, resulting in final test compound concentrations of 500 nM and 10 nM, respectively. The experimental procedure is described below using the diluted 2 μM test compound as an example.
(§8) 0.5 μL of the aforementioned diluted compound of the present disclosure (including the compounds in Table 1, Table 2, and Examples 1-468) was added to the seeded cells in 100 μL of medium, yielding a final test compound concentration of 10 nM. After the cells were treated with the compounds of the present disclosure for a specified period, the cell viability assay reagent was added to the culture medium according to the kit's instructions to determine cell viability. […] All controls were treated using the same procedure as the compounds of the present disclosure. The growth inhibition curves for the compounds of the present disclosure were plotted using Prism GraphPad software, and the IC50 values were calculated therefrom.

The test system of assay [2] is Human T lymphocytic leukemia cell line (Jurkat). The assay can be described thus: Inhibition of Jurkat cell proliferation (CellTiter luminescent viability). It counts as cell-based. The conditions noted are these: Table IC1, BTK inhibitor-based, 96 hours, read-out: Inhibitory activity (IC50, nM) on tumor cell proliferation, Jurkat.
The subject of assay [3] is Human Multiple myeloma cell line (MM.1S). Briefly: Inhibition of MM.1S cell proliferation (CellTiter luminescent viability). It counts as cell-based. The conditions noted are these: Table IC1, BTK inhibitor-based, 96 hours, read-out: Inhibitory activity (IC50, nM) on tumor cell proliferation, MM.1S. The method, boiled down:
(§9)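 Cells are seeded in 96-well plates, cultured at 37 °C, 5% CO2, and treated next day with 5-fold serial compound dilutions (stock series from 2000 μM; 0.5 μL into 100 μL medium). Viability is read by CellTiter-Meiluncell luminescence after the set exposure, and IC50 is taken from growth-inhibition curves.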

The test system of the next assay is JEKO-1. The assay can be described thus: Inhibition of JEKO-1 cell proliferation (CellTiter luminescent viability). Format: cell-based, human. The conditions noted are these: Table IC1, BTK inhibitor-based; JEKO-1, 96 hours; read-out: Inhibitory activity (IC50, nM) on tumor cell proliferation, JEKO-1. Here is the method: as §6, §7, §8
For assay [4], the system named is Human non-small cell lung cancer cell line NCI-H1975. The assay can be described thus: Inhibition of H1975 cell proliferation (CellTiter luminescent viability). Format: cell-based. Particulars: Table IC1, BTK inhibitor-based; H1975, 96 hours; read-out: Inhibitory activity (IC50, nM) on tumor cell proliferation, H1975. In outline: as §9
The target of another assay is T1, BTK (Homo sapiens, UniProt Q06187).
T1 construct: expression of target proteins in cells; endogenous in cells
T1 sequence (Q06187 whole entry): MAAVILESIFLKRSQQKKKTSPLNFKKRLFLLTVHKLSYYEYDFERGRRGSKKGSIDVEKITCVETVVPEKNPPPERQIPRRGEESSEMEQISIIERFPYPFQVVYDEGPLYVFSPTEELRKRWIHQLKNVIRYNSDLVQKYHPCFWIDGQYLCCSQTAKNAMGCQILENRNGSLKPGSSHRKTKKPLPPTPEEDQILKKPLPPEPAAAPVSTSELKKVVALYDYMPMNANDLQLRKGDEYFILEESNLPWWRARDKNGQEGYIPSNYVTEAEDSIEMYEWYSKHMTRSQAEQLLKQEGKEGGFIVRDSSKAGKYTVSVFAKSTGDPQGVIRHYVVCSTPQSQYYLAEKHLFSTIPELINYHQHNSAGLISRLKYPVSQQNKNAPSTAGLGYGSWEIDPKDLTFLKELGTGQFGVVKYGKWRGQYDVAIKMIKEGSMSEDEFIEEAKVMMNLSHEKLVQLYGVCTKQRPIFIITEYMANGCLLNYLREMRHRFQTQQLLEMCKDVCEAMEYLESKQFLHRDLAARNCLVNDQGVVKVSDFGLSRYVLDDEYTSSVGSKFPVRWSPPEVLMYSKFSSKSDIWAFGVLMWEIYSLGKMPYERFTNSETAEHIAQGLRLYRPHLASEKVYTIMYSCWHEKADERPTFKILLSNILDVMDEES
Briefly: Western blot degradation of BTK. It counts as cell-based. Particulars: Table IIA4, BTK inhibitor-based. Here is the method:
as §1, §2, §3, §4
(§10) DC50 values can be calculated using ImageJ software to measure grayscale values of Western blot bands from drug-treated samples. The concentration-response curve is fitted to estimate the drug concentration corresponding to half the grayscale value.
(§11) Target protein remaining (%) refers to the percentage of target protein remaining in cells after treatment with protein degrader compounds.
(§12) Calculation method for target protein remaining (%): Use ImageJ software to measure grayscale values of Western blot bands from drug (protein degrader)-treated samples. The grayscale value of drug-treated bands is divided by that of internal control protein bands, and the resulting quotient is normalized to obtain the relative percentage of remaining target protein after protein degrader treatment.
(§13) Target protein degradation rate (%)=1−target protein remaining (%).
(In western blotting, separated proteins are transferred to a membrane and probed.)

In assay [5] the target is T2, human Cereblon WT GST-tagged protein (CRBN) (Homo sapiens, UniProt Q96SW2).
T2 construct: purchased CISBIO 64BDCRBNPEH
T2 sequence (Q96SW2 whole entry): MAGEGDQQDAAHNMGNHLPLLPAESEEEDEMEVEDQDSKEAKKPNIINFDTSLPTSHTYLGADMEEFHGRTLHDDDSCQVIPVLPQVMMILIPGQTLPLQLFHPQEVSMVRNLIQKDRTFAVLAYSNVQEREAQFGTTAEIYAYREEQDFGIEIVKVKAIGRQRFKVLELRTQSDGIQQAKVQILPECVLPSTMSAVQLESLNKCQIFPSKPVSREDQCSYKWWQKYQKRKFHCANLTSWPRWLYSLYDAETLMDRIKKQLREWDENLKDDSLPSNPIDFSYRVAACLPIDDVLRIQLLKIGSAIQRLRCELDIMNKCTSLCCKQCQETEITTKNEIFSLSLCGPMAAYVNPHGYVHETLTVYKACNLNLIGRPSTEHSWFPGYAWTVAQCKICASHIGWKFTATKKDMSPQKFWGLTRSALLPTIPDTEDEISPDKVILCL
The assay can be described thus: CRBN binding by HTRF (Cereblon binding kit). In outline:
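GST-tagged human Cereblon WT was incubated 3 h at room temperature with compound, thalidomide-Re tracer and Eu anti-GST antibody. Final compound concentrations were 10 to 0.00064 µM (7 points) or 2 and 0.5 µM. Inhibition rate was calculated from HTRF 665/620 nm ratios versus solvent and blank controls.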

Another assay has as its target CDK2 (Homo sapiens, UniProt P24941). The assay can be described thus: Western blot degradation of CDK2. It counts as cell-based. Particulars: hPBMC Cell; 24 hours. Here is the method:
as §1, §2, §3, §4, §5

The target of a further assay is T3, Tau (Homo sapiens, UniProt P10636).
T3 construct: endogenous in cells
T3 sequence (P10636 whole entry): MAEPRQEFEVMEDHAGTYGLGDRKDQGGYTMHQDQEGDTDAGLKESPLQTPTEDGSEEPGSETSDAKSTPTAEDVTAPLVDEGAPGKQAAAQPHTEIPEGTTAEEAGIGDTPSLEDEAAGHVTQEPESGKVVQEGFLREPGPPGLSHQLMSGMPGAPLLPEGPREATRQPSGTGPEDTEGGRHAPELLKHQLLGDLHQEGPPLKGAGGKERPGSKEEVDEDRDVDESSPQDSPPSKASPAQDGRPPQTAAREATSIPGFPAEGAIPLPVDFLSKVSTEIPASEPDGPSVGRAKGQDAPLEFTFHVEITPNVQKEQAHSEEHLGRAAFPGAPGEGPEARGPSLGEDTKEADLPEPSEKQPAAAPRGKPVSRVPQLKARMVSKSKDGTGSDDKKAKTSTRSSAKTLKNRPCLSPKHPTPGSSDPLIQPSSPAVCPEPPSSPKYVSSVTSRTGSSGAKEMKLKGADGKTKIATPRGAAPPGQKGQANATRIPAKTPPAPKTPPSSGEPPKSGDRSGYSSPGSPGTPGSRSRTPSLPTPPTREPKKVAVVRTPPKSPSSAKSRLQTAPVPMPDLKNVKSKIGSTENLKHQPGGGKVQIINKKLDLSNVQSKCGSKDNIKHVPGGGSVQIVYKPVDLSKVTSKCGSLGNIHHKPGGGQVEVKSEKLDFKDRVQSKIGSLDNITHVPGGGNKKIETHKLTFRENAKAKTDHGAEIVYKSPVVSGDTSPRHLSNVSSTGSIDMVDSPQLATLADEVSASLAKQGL
The assay can be described thus: Western blot degradation of Tau. Format: cell-based. Particulars: H4 Cell; 24 hours. As to the method:
as §1, §2, §3, §4, §10, §11, §12, §13

The text below walks through data of patent publication US20260364184A1, “COMPOUND BASED ON OXOISOINDOLINYL-SUBSTITUTED TETRAHYDROPYRIMIDINE-DIONE AND USE THEREOF” (GLUETACS THERAPEUTICS (SHANGHAI) CO., LTD., priority 2023, published 2026).

The term inhibition denotes the percentage by which the read-out fell short of the control.

SMILES strings stand for the structures.

Sequence of ER (P03372 whole entry): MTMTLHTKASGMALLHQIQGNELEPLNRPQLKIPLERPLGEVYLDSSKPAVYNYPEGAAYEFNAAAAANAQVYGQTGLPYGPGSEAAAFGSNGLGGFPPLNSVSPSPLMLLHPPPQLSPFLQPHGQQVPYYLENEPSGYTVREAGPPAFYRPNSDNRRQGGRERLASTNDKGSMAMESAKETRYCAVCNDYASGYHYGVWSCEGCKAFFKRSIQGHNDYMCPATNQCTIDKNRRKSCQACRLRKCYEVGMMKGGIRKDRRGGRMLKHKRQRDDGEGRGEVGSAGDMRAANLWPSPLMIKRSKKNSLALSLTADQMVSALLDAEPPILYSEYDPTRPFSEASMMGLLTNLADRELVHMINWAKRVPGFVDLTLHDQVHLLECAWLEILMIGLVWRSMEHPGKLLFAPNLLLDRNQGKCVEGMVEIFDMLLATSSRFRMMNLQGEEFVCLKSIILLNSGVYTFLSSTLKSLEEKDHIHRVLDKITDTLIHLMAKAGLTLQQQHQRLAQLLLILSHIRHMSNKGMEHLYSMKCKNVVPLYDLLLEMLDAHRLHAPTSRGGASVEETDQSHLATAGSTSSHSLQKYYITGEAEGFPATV
Sequence of ER (Q96SW2 whole entry partner): as the sequence (Q96SW2 whole entry) above

As to `O=C1CCN(N2C(=O)c3ccc(CN4CCN(c5ccc([C@@H]6c7ccc(O)cc7OC[C@@H]6c6ccccc6)cc5)CC4)cc3C2=O)C(=O)N1` [GT-04778, 2-(2,4-dioxotetrahydropyrimidin-1(2H)-yl)-5-((4-(4-((3S,4R)-7-hydroxy-3-phenylchroman-4-yl)phenyl)piperazin-1-yl)methyl)isoindoline-1,3-dione], the “Degradation of substrate protein ER (substrate protein remaining %)” value at ER is listed as “A (0%≤substrate protein remaining %≤80%)”.
On to `Nc1ncnc2c1c(-c1ccc(Oc3ccccc3)cc1)nn2C1CCN(Cc2ccc3c(c2)CN(N2CCC(=O)NC2=O)C3=O)CC1` [GT-05075, 1-(5-((4-(4-amino-3-(4-phenoxyphenyl)-1H-pyrazolo[3,4-d]pyrimidin-1-yl)piperidin-1-yl)methyl)-1-oxoisoindolin-2-yl)dihydropyrimidine-2,4 (1H,3H)-dione], for which the IC50 in assay [1] was 50 to 100 nM; in assay [2], 50 to 100 nM; in [3], 10 to 50 nM; in the assay on JEKO-1 it was 50 to 100 nM; in [4], 50 to 100 nM. The “Degradation of substrate protein BTK (substrate protein remaining %)” value at BTK was “A (0%≤substrate protein remaining %≤80%)”.
As for `Nc1ncnc2c1c(-c1ccc(Oc3ccccc3)cc1)nn2C1CCN(CC2CCN(c3cccc4c3C(=O)N(N3CCC(=O)NC3=O)C4=O)CC2)CC1` [GT-05077, 4-(4-((4-(4-amino-3-(4-phenoxyphenyl)-1H-pyrazolo[3,4-d]pyrimidin-1-yl)piperidin-1-yl)methyl)piperidin-1-yl)-2-(2,4-dioxotetrahydropyrimidin-1(2H)-yl)isoindoline-1,3-dione], the “Degradation of substrate protein BTK (substrate protein remaining %)” value on BTK is listed as “A (0%≤substrate protein remaining %≤80%)”.
Take `Nc1ncnc2c1c(-c1ccc(Oc3ccccc3)cc1)nn2C1CCN(CC2CCN(C3CCN(c4ccc5c(c4)C(=O)N(N4CCC(=O)NC4=O)C5=O)CC3)CC2)CC1` [GT-05096, 5-(4-((4-(4-amino-3-(4-phenoxyphenyl)-1H-pyrazolo[3,4-d]pyrimidin-1-yl)piperidin-1-yl)methyl)-[1,4′-bipiperidin]-1′-yl)-2-(2,4-dioxotetrahydropyrimidin-1(2H)-yl)isoindoline-1,3-dione]: the “Degradation of substrate protein BTK (substrate protein remaining %)” value at BTK is on record as “A (0%≤substrate protein remaining %≤80%)”. Besides, the inhibition at 0.5 µM in assay [5] (0.5 μM, read-out: Inhibition Rate at 0.5 μM (%)) was in the range of 10 to 20%. For the same compound, the inhibition at 2 µM in assay [5] (2 μM, read-out: Inhibition Rate at 2 μM (%)) fell in the range of 53 to 60%.
In the case of `Cc1cc(S(=O)(=O)N2CCN(Cc3ccc4c(c3)C(=O)N(N3CCC(=O)NC3=O)C4=O)CC2)ccc1Nc1ncc(Br)c(Nc2cccc(F)c2C(N)=O)n1` [GT-06829, 2-((5-bromo-2-((4-((4-((2-(2,4-dioxotetrahydropyrimidin-1(2H)-yl)-1,3-dioxoisoindolin-5-yl)methyl)piperazin-1-yl)sulfonyl)-2-methylphenyl)amino)pyrimidin-4-yl)amino)-6-fluorobenzamide], the “Degradation of substrate protein CDK2 (substrate protein remaining %)” value at CDK2 is recorded as “A (0%≤substrate protein remaining %≤80%)”.
As for `O=C1CCN(N2C(=O)c3ccc(CN4CCN(C5CCN(c6ccn7c(n6)nc6ccccc67)CC5)CC4)cc3C2=O)C(=O)N1` [GT-08568, 5-((4-(1-(benzo[4,5]imidazo[1,2-a]pyrimidin-2-yl)piperidin-4-yl)piperazin-1-yl)methyl)-2-(2,4-dioxotetrahydropyrimidin-1(2H)-yl)isoindoline-1,3-dione], on Tau, the “Degradation of substrate protein Tau (substrate protein remaining %)” value was “A (0%≤substrate protein remaining %≤80%)”.
Consider `Cn1ncc(Cl)c1-c1cc(C(=O)N[C@H](CNCC2CCN(c3cccc4c3C(=O)N(N3CCC(=O)NC3=O)C4=O)CC2)Cc2ccc(F)c(F)c2)oc1Cl` [GT-08589, (S)-5-chloro-4-(4-chloro-1-methyl-1H-pyrazol-5-yl)-N-(1-(3,4-difluorophenyl)-3-(((1-(2-(2,4-dioxotetrahydropyrimidin-1(2H)-yl)-1,3-dioxoisoindolin-4-yl)piperidin-4-yl)methyl)amino)propan-2-yl) furan-2-carboxamide], for which the “Degradation of substrate protein Tau (substrate protein remaining %)” value on Tau is on record as “A (0%≤substrate protein remaining %≤80%)”.
For the compound `Cn1ncc(Cl)c1-c1cc(C(=O)N[C@@H](Cc2ccc(F)c(F)c2)CN2CCN(CC3CCN(c4cccc5c4C(=O)N(N4CCC(=O)NC4=O)C5=O)CC3)CC2)oc1Cl` [GT-08590, (S)-5-chloro-4-(4-chloro-1-methyl-1H-pyrazol-5-yl)-N-(1-(3,4-difluorophenyl)-3-(4-((1-(2-(2,4-dioxotetrahydropyrimidin-1(2H)-yl)-1,3-dioxoisoindolin-4-yl)piperidin-4-yl)methyl)piperazin-1-yl)propan-2-yl) furan-2-carboxamide], the “Degradation of substrate protein Tau (substrate protein remaining %)” value at Tau was “A (0%≤substrate protein remaining %≤80%)”.
`Cn1ncc(Cl)c1-c1cc(C(=O)N[C@@H](Cc2cccc(F)c2)CN2CCN(CC3CCN(c4cccc5c4C(=O)N(N4CCC(=O)NC4=O)C5=O)CC3)CC2)sc1Cl` [GT-08591, (S)-5-chloro-4-(4-chloro-1-methyl-1H-pyrazol-5-yl)-N-(1-(4-((1-(2-(2,4-dioxotetrahydropyrimidin-1(2H)-yl)-1,3-dioxoisoindolin-4-yl)piperidin-4-yl)methyl)piperazin-1-yl)-3-(3-fluorophenyl)propan-2-yl)thiophene-2-carboxamide]: the “Degradation of substrate protein Tau (substrate protein remaining %)” value at Tau was “A (0%≤substrate protein remaining %≤80%)”.
As to `O=C1CCN(N2C(=O)c3ccc(N4CCN(CC5CCN(c6ccn7c(n6)nc6ccccc67)CC5)CC4)c(F)c3C2=O)C(=O)N1` [GT-08824, 5-(4-((1-(benzo[4,5]imidazo[1,2-a]pyrimidin-2-yl)piperidin-4-yl)methyl)piperazin-1-yl)-2-(2,4-dioxotetrahydropyrimidin-1(2H)-yl)-4-fluoroisoindoline-1,3-dione], at Tau, the “Degradation of substrate protein Tau (substrate protein remaining %)” value is “A (0%≤substrate protein remaining %≤80%)”.
